Experimental data published in publication PMC9321663, “The DevTox Germ Layer Reporter Platform: An Assay Adaptation of the Human Pluripotent Stem Cell Test” (Toxics, 2022).
Where two headings read alike, the source gives them in different places.

Assays:
[1] = tested on: SOX17 (endoderm marker) in RUES2-GLR cells; assay: DevTox GLR-Endo assay: increase in percent SOX17-positive cells (AEID 3093, Sox17_up); format: cell-based, human; settings: for Emax: Homo sapiens; for HIT−CALL: tcpl plot AEID3093, COFF 20.3
Protocol: (§1) The total test chemical incubation period was 48 h.
(§2) (Supplementary Materials).

[2] = tested on: SOX17 (endoderm marker) in RUES2-GLR cells; assay: DevTox GLR-Endo assay: decrease in percent SOX17-positive cells (AEID 3094, Sox17_dn); settings: for Hit Call: Table S2, SOX17-positive cells, cutoff 3*bmad; for DevTox ACC: Table S2, percent SOX17-positive cells; for HIT−CALL: tcpl plot AEID3094, COFF 20.3
Outline: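 Readouts are loss of SOX17-positive fraction and reduced cell number in endoderm-differentiating RUES2-GLR cells after 48 h of chemical exposure. Controls: undifferentiated and differentiated cells, 0.2% DMSO, and 1 µM SB431542; at least four biological replicates.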

[3] = tested on: BRA (mesoderm marker) in RUES2-GLR cells; assay: DevTox GLR-Endo assay: increase in percent BRA-positive cells (AEID 3096, Bra_up); format: cell-based, human; settings: for HIT−CALL: tcpl plot AEID3096, COFF 0.774; for MAX_MEAN: tcpl plot AEID3096, maximum mean response; for MAX_MED: tcpl plot AEID3096, maximum median response
Protocol: as §1, §2

[4] = tested on: SOX2 (ectoderm and pluripotency marker) in RUES2-GLR cells; assay: DevTox GLR-Endo assay: increase in percent SOX2-positive cells (AEID 3095, Sox2_up); settings: for MAX_MEAN: tcpl plot AEID3095, maximum mean response; for MAX_MED: tcpl plot AEID3095, maximum median response; for AC50 / Emax: Homo sapiens; for AC50: read-out: ga (winning model); for Emax: read-out: tp (winning model);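 for all read-outs here: cells exposed to test chemicals for 48 h in total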
Protocol: RUES2-GLR cells were seeded 24 h prior to differentiation initiation into vitronectin-coated 384-well CellCarrier Ultra plates (10.6 mm^2/well) (Perkin Elmer, Waltham, MA, USA). Vitronectin (0.5 µg/cm^2)-coated plates were prepared and stored at 4 °C, wrapped in parafilm, for less than seven days and incubated at room temperature for one hour prior to cell seeding. […] Cells were dispensed into 20 µL coating solution using a Certus FLEX Micro Dispenser (Fritz Gyger, Gwatt, Switzerland) with a 0.45 µm valve to a final volume of 100 µL and density of 2.8 × 10^3 cells per well.
Following a 24 h post-seeding incubation period (Time = 0 h) (Figure 3A), directed endoderm differentiation was initiated with the PSC Definitive Endoderm Induction kit (Gibco, Waltham, MA, USA). […] A target dilution series (0.002–200 µM) was generated by dispensing variable nanoliter volumes of test chemical and backfilling with a complementary volume of DMSO using Echo Cherry Pick software (v.1.6.2). Wells were backfilled with 50 µL of induction medium using a Certus FLEX Micro Dispenser with 0.45 µm valves. Test compound treatment plates were mixed on a Multi-Microplate Genie mixer at 700 rpm for 10 min and subsequently incubated for two hours in a humidified atmosphere at 37 °C with 5% CO2. Each chemical treatment (0 h–Medium A; 24 h–Medium B) were prepared the day of treatment. At 0 h, cell culture medium was aspirated from the assay plate at a rate of 1 µL/s and 40 µL of Medium A ± test chemical applied using a CyBio FeliX automated liquid handler (Analytik Jena, Jena, Germany). At 24 h, conditioned cell culture medium was aspirated and 40 µL of Medium B ± test chemical was applied. At 48 h, cells were prepared for high-content image acquisition by fixation and nuclear staining. The total test chemical incubation period was 48 h. For fixation, a 4% paraformaldehyde (PFA) solution was achieved by adding 40 µL of 8% PFA directly to cell culture medium using a CyBio FeliX liquid handler. […] Following an additional 30 min incubation period at room temperature, staining solution was aspirated, 50 µL of DPBS was added, and plate sealed with MicroAmp Optical Adhesive Film (Applied Biosystems, Waltham, MA, USA).
Images were acquired within 12 h post-fixation using an Opera Phenix High-Content Screening System (Perkin Elmer, Waltham, MA, USA). […] Cell identification and mean biomarker fluorescent intensities were calculated using Harmony image analysis software (Perkin Elmer, Waltham, MA, USA). Cell nuclei were identified using the object classifying algorithm C of the software with border objects excluded using the “Remove Border Objects” feature. Mean cell biomarker intensity statistics were gathered from each object and exported for further analysis using a custom script in Python version 3.7.4 [61] […] For each plate, pluripotent-negative control wells were used to establish baseline intensity values and a cutoff threshold for determining SOX17 and BRA biomarker-positive cells. Endoderm differentiated positive control wells were used to establish baseline intensity values and a cutoff threshold for SOX2-positive cells. Cells with a mean intensity five times the baseline median absolute deviation (5*bmad) above the median cell intensity for plate-based control population technical replicates were considered positive. Well-based cell counts, reflected by the sum of total counted objects from all fields, were used to calculate the percent responders for each respective biomarker and evaluate cytotoxicity. Well-level results were exported for data modeling in the ToxCast Pipeline.
The ToxCast Pipeline R package (tcpl v.2.0.2) was used to normalize, fit, and qualify concentration-response screening data [63].

RUES2-GLR cells = assay: DevTox GLR-Endo assay: decrease in total cell count, cytotoxicity (AEID 3098, CellCount_dn); settings: for Emax: Homo sapiens, read-out: Cell Count % Max Inhibition
in vitro = settings: human
[5] = tested on: SOX17 in H9 human ESC line; settings: SOX17 half-maximal inhibition concentration; read-out: hPST IC50; cited from earlier work
H9 human ESC line = settings: cited from earlier work
[6] = cited from earlier work; for Development Toxicant Classification: Table S2; for Classification: developmental toxicant classification (Teratogen / Non-Teratogen) of reference and training chemicals, ref DOI per chemical: 10.1093/toxsci/kft239, 10.1093/toxsci/kfaa014, 10.1177/026119290203000204, 10.1038/s41598-020-59542-x; for DT Class.: developmental toxicant classification; for Developmental Toxicant Classification: reference chemicals
[7] = tcpl plot AEID3093, maximum mean response, read-out: MAX_MEAN
[8] = tcpl plot AEID3093, maximum median response, read-out: MAX_MED
[9] = Homo sapiens, 48 h, read-out: DevTox-GLR Endo AC50 (µM), SOX17 half-maximal activity concentration, 48 h exposure
[10] = Homo sapiens, read-out: DevTox % Max Inhibition
[11] = Homo sapiens, read-out: MAX_MEAN
[12] = Homo sapiens, read-out: MAX_MED
[13] = cytotoxicity half-maximal concentration
[14] = chemicals common with quickPredict
[15] = Homo sapiens, read-out: ga (winning model), tcpl plot AEID3094, gain parameter of winning curve fit (log concentration, µM axis), hit calls only (converted)
[16] = Homo sapiens, read-out: tp (winning model)
[17] = RUES2-GLR cells under directed endoderm differentiation

SMILES	Emax [1, 7] [%]	Emax [1, 8] [%]	HIT−CALL [1]	AC50 [2, 9] [µM]	Emax [2, 10] [%]	Emax [2, 11] [%]	Emax [2, 12] [%]	Hit Call [2]	DevTox ACC ([2]; 48 h exposure) [µM]	HIT−CALL [2]	HIT−CALL [3]	MAX_MEAN [4] [Percent Activity]	MAX_MED [4] [Percent Activity]	Emax (RUES2-GLR cells) [%]	IC50 [5] [µM]	hPST TC50 (H9 human ESC line; [13]) [µM]	hPST TC50 (H9 human ESC line; hPST cytotoxicity) [µM]	Development Toxicant Classification [6]	Classification [6]	DT Class. ([6]; chemicals common with hPST)	further results
O=C1NS(=O)(=O)c2ccccc21 [Saccharin]	10.2	10.9	0	> 200	13	11	13	Negative	>200	0	0	0.945	0.563	17.9	> 400	>400	> 400	Negative	Non-Teratogen	Neg	MAX_MEAN [3]: 1.1 Percent Activity; MAX_MED [3]: 1.04 Percent Activity; Cell Count ACC (RUES2-GLR cells; human, 48 h): >200 µM; CC50 at 48 h (in vitro): > 200 µM; DT Class. [6, 14]: Neg; Developmental Toxicant Classification [6]: Negative
Cc1nc2sccn2c(=O)c1CCN1CCC(=C(c2ccc(F)cc2)c2ccc(F)cc2)CC1 [Ritanserin]	-0.644	-1.38	0	9.98	102	102	102	Positive	8.389	1	1	2.33	1.82	94.7	7.3	27	27	Positive	Teratogen	Pos	AC50 [2, 15]: 9.98 µM; Emax [2, 16]: 102%; MAX_MEAN [3]: 2.65 Percent Activity; MAX_MED [3]: 3.04 Percent Activity; AC50 [4]: 158 µM; Emax [4]: 4.15%; Cell Count ACC (RUES2-GLR cells; Table S2, 48 h exposure): 6.426 µM; CC50 at 48 h (in vitro; [17]): 9.47 µM
CC1(C)S[C@@H]2[C@H](NC(=O)Cc3ccccc3)C(=O)N2[C@H]1C(=O)O [Penicillin G]	13.2	12.4	0	> 200	10.3	12.2	10.3	Negative	>200	0	0	2.17	0.88	13.3	> 400	>400	> 400	–	–	–	MAX_MEAN [3]: 0.857 Percent Activity; MAX_MED [3]: 0.92 Percent Activity; Cell Count ACC (RUES2-GLR cells; human, 48 h): >200 µM; CC50 at 48 h (in vitro): > 200 µM
CC(=O)Oc1ccccc1C(=O)O [Aspirin]	-3.36	-3.07	0	> 200	12.4	13.1	12.4	Negative	>200	0	1	0.503	0.512	2.85	> 200	>200	> 200	Negative	Non-Teratogen	Neg	MAX_MEAN [3]: 1.04 Percent Activity; MAX_MED [3]: 1.03 Percent Activity; Cell Count ACC (RUES2-GLR cells; human, 48 h): >200 µM; CC50 at 48 h (in vitro; [17]): > 200 µM; DT Class. [6, 14]: Neg; Developmental Toxicant Classification [6]: Negative
COc1ccc2nc([S@@+]([O-])Cc3ncc(C)c(OC)c3C)[nH]c2c1 [Esomeprazole]	0.101	1.23	0	34	101	101	101	Positive	12.9286	1	–	23.9	21.6	94	32	101	101	Negative	Non-Teratogen	Neg	SOX17 ACC relative to cytotoxic concentration (in words) [2]: below cytotoxic concentrations; hit call designation (in words) ([2]; DevTox GLR-Endo prediction against developmental toxicant classification): false positive; AC50 [2, 15]: 33.9 µM; Emax ([2]; Homo sapiens, read-out: maximum observed effect level class (% max inhibition)): 80 to 100%; Emax [2, 16]: 123%; AC50 ([2]; read-out: DevTox-GLR Endo AC50, SOX17 half-maximal activity concentration, 48 h exposure): 33.8 µM; AC50 [4]: 69.2 µM; Emax [4]: 17.4%; Cell Count ACC (RUES2-GLR cells; human, 48 h): 28.1982 µM; CC50 at 48 h (in vitro; [17]): 38.5 µM
COc1cc2c(Nc3ccc(Br)cc3F)ncnc2cc1OCC1CCN(C)CC1 [Vandetanib]	7.33	9.78	0	4.9	102	102	102	Positive	4.123	1	–	10.9	10.8	98.3	3.5	4.4	4.4	Positive	Teratogen	Pos	AC50 [2, 15]: 4.91 µM; Emax [2, 16]: 101%; AC50 [4]: 7.23 µM; Emax [4]: 23.1%; Cell Count ACC (RUES2-GLR cells; Table S2, 48 h exposure): 2.124 µM; CC50 at 48 h (in vitro; [17]): 4.32 µM
